Measurements from ChEMBL document CHEMBL3885861, “Open TG-GATES”.

Organism: Rattus norvegicus
Assay: Open TG-GATES - Regimen: Daily Repeat
Type: toxicity, organism-based, Sprague-Dawley
Parameters: regimen Daily Repeat, gender Male, age 6 weeks
Details: in vivo, po, 0 mg/kg, […], route gavage, dose level Control; for KIDNEY_L / KIDNEY_R / KIDNEY_TOTAL: tissue Kidney; for LIVER: tissue Liver; for A/G / ALP / ALT / AST / BUN / CRE / Ca / Cl / DBIL / GLC / IP / K / LDH / Na / PL / RALB / TBIL / TC / TG / TP / gamma-GTP: tissue Plasma

Nc1nc(N)c2nc(-c3ccccc3)c(N)nc2n1
Lym (tissue Blood, time 28 day): 82.6%
MCH (tissue Blood, time 28 day): 18.8 pg
MCHC (tissue Blood, time 28 day): 33.3%
MCV (tissue Blood, time 28 day): 56.5 fL
Mono (tissue Blood, time 28 day): 2.2%
Neu (tissue Blood, time 28 day): 13.6%
PT (tissue Blood, time 28 day): 13 s
Plat (tissue Blood, time 28 day): 111.3 x10_4/uL
RBC (tissue Blood, time 28 day): 819.6 x10_4/ul
Ret (tissue Blood, time 28 day): 2.3%
WBC (tissue Blood, time 28 day): 87 x10_2/uL
KIDNEY_L (time 7 day): 1.2 g
KIDNEY_R (time 7 day): 1.2 g
KIDNEY_TOTAL (time 7 day): 2.3 g
KIDNEY_L (time 14 day): 1.2 g
KIDNEY_R (time 14 day): 1.2 g
KIDNEY_TOTAL (time 14 day): 2.4 g
KIDNEY_L (time 28 day): 1.5 g
KIDNEY_R (time 28 day): 1.4 g
KIDNEY_TOTAL (time 28 day): 2.9 g
LIVER (time 7 day): 13.7 g
LIVER (time 14 day): 13.8 g
LIVER (time 28 day): 16.7 g
A/G (time 7 day): 0.9
ALP (time 7 day): 1612.4 IU/L
ALT (time 7 day): 43.2 IU/L
AST (time 7 day): 63.4 IU/L
BUN (time 7 day): 16.2 mg/dL
CRE (time 7 day): 0.2 mg/dL
Ca (time 7 day): 11.1 mg/dL
Cl (time 7 day): 104.4 meq/L
DBIL (time 7 day): 0.014 mg/dL
GLC (time 7 day): 186.2 mg/dL
IP (time 7 day): 7.7 mg/dL
K (time 7 day): 4.3 meq/L
LDH (time 7 day): 63.4 IU/L
Na (time 7 day): 142.4 meq/L
PL (time 7 day): 179.4 mg/dL
RALB (time 7 day): 2.7 g/dL
TBIL (time 7 day): 0.076 mg/dL
TC (time 7 day): 90.2 mg/dL
TG (time 7 day): 133 mg/dL
TP (time 7 day): 5.8 g/dL
gamma-GTP (time 7 day): 1 IU/L
A/G (time 14 day): 0.8
ALP (time 14 day): 1497.6 IU/L
ALT (time 14 day): 34 IU/L
AST (time 14 day): 60 IU/L
BUN (time 14 day): 14.6 mg/dL
CRE (time 14 day): 0.2 mg/dL
Ca (time 14 day): 10.6 mg/dL
Cl (time 14 day): 105.6 meq/L
DBIL (time 14 day): 0.01 mg/dL
GLC (time 14 day): 191.6 mg/dL
IP (time 14 day): 7.5 mg/dL
K (time 14 day): 4 meq/L
LDH (time 14 day): 60.4 IU/L
Na (time 14 day): 143 meq/L
PL (time 14 day): 154.4 mg/dL
RALB (time 14 day): 2.7 g/dL
TBIL (time 14 day): 0.068 mg/dL
TC (time 14 day): 72.8 mg/dL
TG (time 14 day): 141.6 mg/dL
TP (time 14 day): 5.9 g/dL
gamma-GTP (time 14 day): 1 IU/L
A/G (time 28 day): 0.8
ALP (time 28 day): 1077.6 IU/L
ALT (time 28 day): 40 IU/L
AST (time 28 day): 67.4 IU/L
BUN (time 28 day): 16 mg/dL
CRE (time 28 day): 0.2 mg/dL
Ca (time 28 day): 10.8 mg/dL
Cl (time 28 day): 104.2 meq/L
DBIL (time 28 day): 0.012 mg/dL
GLC (time 28 day): 194.8 mg/dL
IP (time 28 day): 6.5 mg/dL
K (time 28 day): 3.8 meq/L
LDH (time 28 day): 76.4 IU/L
Na (time 28 day): 143.4 meq/L
PL (time 28 day): 144.8 mg/dL
RALB (time 28 day): 2.8 g/dL
TBIL (time 28 day): 0.066 mg/dL
TC (time 28 day): 68.2 mg/dL
TG (time 28 day): 149.6 mg/dL
TP (time 28 day): 6.3 g/dL
gamma-GTP (time 28 day): 1 IU/L
